Measurements taken from ChEMBL document CHEMBL5260832, “Hepatoprotective natural triterpenoids” (Eur J Med Chem, 2018).

Assays:
[1] = system: Hepatocyte; assay: Hepatoprotective activity against CCL4-induced rat hepatocyte toxicity assessed as decrease in ALT level at 0.25 mg/ml (reference value: 119.0 U/L); type: functional
[2] = system: Hepatocyte; assay: Hepatoprotective activity against CCL4-induced rat hepatocyte toxicity assessed as increase in SOD level at 0.25 mg/ml (reference value: 125.8 U/L); type: functional
[3] = system: Hepatocyte; assay: Hepatoprotective activity against CCL4-induced rat hepatocyte toxicity assessed as decrease in MDA level at 0.25 mg/ml (reference value: 9.22 nmol/mg); type: functional
[4] = system: Hepatocyte; assay: Hepatoprotective activity against CCL4-induced rat hepatocyte toxicity assessed as increase in GSH level at 0.25 mg/ml (reference value: 3.7 mg/g); type: functional
[5] = system: Hepatocyte; assay: Hepatoprotective activity against CCL4-induced rat hepatocyte toxicity assessed as decrease in AST level at 0.25 mg/ml (reference value: 243.5 U/L); type: functional
[6] = system: HepG2; assay: Hepatoprotective activity against H2O2-induced human HepG2 cells assessed as increase in ALT level; type: functional
[7] = system: HepG2; assay: Hepatoprotective activity against H2O2-induced human HepG2 cells assessed as increase in AST level at 25.55 uM; type: functional
[8] = system: Hepatocyte; assay: Hepatoprotective activity against D-GaIN-induced toxicity in mouse hepatocytes at 100 uM relative to control; type: functional
[9] = system: Hepatocyte; assay: Hepatoprotective activity against D-GaIN-induced toxicity in mouse hepatocytes at 10 uM relative to control; type: functional
[10] = system: Hepatocyte; assay: Hepatoprotective activity against D-GaIN-induced toxicity in mouse hepatocytes at 3 uM relative to control; type: functional
[11] = system: Hepatocyte; assay: Hepatoprotective activity against D-GaIN-induced toxicity in mouse hepatocytes at 30 uM relative to control; type: functional
[12] = species: Mus musculus; assay: Hepatoprotective activity in CCl4-induced toxicity in liver injured mouse assessed as increase in inhibition of liver damage at 50 uM relative to control; type: functional; design: scale not given: the % may be the effect or the level left
[13] = system: Mus musculus; assay: Hepatoprotective activity in mouse model of D-GaIN/LPS-induced liver injury assessed as inhibition of sALT level secretion at 100 mg/kg, po relative to control; type: functional
[14] = system: Hepatocyte; assay: Hepatoprotective activity against D-GaIN-induced toxicity in mouse hepatocyte relative to control; type: functional, cell-based
[15] = system: Hepatocyte; assay: Hepatoprotective activity against D-GaIN-induced toxicity in mouse hepatocytes
[16] = system: Mus musculus; assay: Hepatoprotective activity in mouse model of D-GaIN/LPS-induced liver injury assessed as inhibition of sAST secretion at 100 mg/kg, po relative to control; type: functional
[17] = system: Huh-7; assay: Protection against CCl4-induced cell damage in human Huh-7 cells assessed as reduction in ALT level at […] (reference value: 40.2 U/ml); type: functional; design: dose or concentration left out as unconfirmed
[18] = system: L02; assay: Protection against D-GalN-induced toxicity in L02 cells […] assessed as reduction in cell growth at 6.25 microg/ml relative to control; type: functional, Homo sapiens; design: scale not given: the % may be the effect or the level left; details: dose 6.25 µg/ml
[19] = system: L02; assay: Protection against D-GalN-induced toxicity in L02 cells […] assessed as reduction in cell growth relative to control; type: functional, Homo sapiens; design: scale not given: the % may be the effect or the level left
[20] = system: L02; assay: Protection against D-GalN-induced toxicity in L02 cells […] assessed as reduction in cell growth at 3.13 microg/ml relative to control; type: functional, Homo sapiens; design: scale not given: the % may be the effect or the level left; details: dose 3.13 µg/ml
[21] = species: Mus musculus; assay: Hepatoprotective activity in mouse model of CCl4-induced liver injury assessed as reduction in ALT level at 100 microg/ml (reference value: 40.2 U/mL); type: functional; details: dose 100 µg/ml
[22] = system: Huh-7; assay: Hepatoprotective activity in human Huh-7 cells assessed as reduction in AST level; type: functional; design: scale not given: the % may be the effect or the level left

CC1(C)CC[C@]2(C(=O)O[C@@H]3O[C@H](CO[C@@H]4O[C@H](CO)[C@@H](O)[C@H](O)[C@H]4O)[C@@H](O)[C@H](O)[C@H]3O)CC[C@]3(C)C(=CC[C@@H]4[C@@]5(C)CCC(O[C@@H]6OC[C@H](O)[C@H](O)[C@H]6O)[C@@](C)(CO)[C@@H]5CC[C@]43C)[C@@H]2C1 (some centres not stated)
Activity [1]: 82.1 U/L
Activity [2]: 161.4 U/L
Activity [3]: 9.22 nmol/mg
Activity [4]: 5.3 mg/g
Activity [5]: 167.5 U/L

CC(=O)[C@H]1CC(=O)[C@@]2(C)C3=C(C(=O)C[C@]12C)[C@@]1(C)CCC(=O)C(C)(C)[C@@H]1CC3=O
Activity [6]: 21.42 U/L
Activity [7]: 26.83 U/L

CC1(C)CC[C@]2(C(=O)O[C@@H]3O[C@H](CO)[C@@H](O)[C@H](O)[C@H]3O)CC[C@]3(C)C(=CC[C@@H]4[C@@]5(C)C[C@@H](O)[C@H](O)C(C)(C)[C@@H]5CC[C@]43C)[C@@H]2[C@@H]1O
Activity [8]: 15.6%
Activity [9]: 24.5%
Activity [10]: 11.1%
Activity [11]: 25.2%

C[C@H]1[C@H](C)CC[C@]2(C(=O)O)CC[C@]3(C)C(=CC[C@@H]4[C@@]5(C)CC[C@H](O)[C@@](C)(CO)[C@@H]5CC[C@]43C)[C@H]12
Activity [12]: 58.3%

C[C@@H]1CC[C@]2(C(=O)O[C@@H]3O[C@H](CO)[C@@H](O)[C@H](O)[C@H]3O)CC[C@]3(C)C(=CC[C@@H]4[C@@]5(C)C[C@@H](O)C(=O)C(C)(C)[C@@H]5CC[C@]43C)[C@@H]2[C@]1(C)O
inhibition in vivo at 100 mg/kg [13]: 78.4%
IC50 [14]: 46.7 µM
IC50 [15]: 46.7 µM
inhibition in vivo at 100 mg/kg [16]: 76.8%

C[C@@H]1CC[C@]2(C(=O)O[C@@H]3O[C@H](CO)[C@@H](O)[C@H](O)[C@H]3O)CC[C@]3(C)C(=CC[C@@H]4[C@@]5(C)C[C@H](O)[C@H](O)C(C)(C)[C@@H]5CC[C@]43C)[C@@H]2[C@]1(C)O
Activity [17]: 15.4 U/ml

CC(C)(O[C@@H]1O[C@H](CO)[C@@H](O)[C@H](O)[C@H]1O)[C@@H]1CC[C@@H]([C@H]2[C@H](O)C[C@]3(C)[C@@H]2CC[C@@H]2[C@@]4(C)CC[C@H](O[C@@H]5O[C@H](CO)[C@@H](O)[C@H](O)[C@H]5O[C@@H]5O[C@H](CO)[C@@H](O)[C@H](O)[C@H]5O)C(C)(C)[C@@H]4CC[C@]23C)O1
Activity [18]: 22.8%
Activity [19]: 46.7%
Activity [20]: 22.8%

C=C1[C@H](O)C[C@]2(C)CC[C@]3(C)C(=C[C@@H](O)[C@@H]4[C@@]5(C)CC[C@H](OC(C)=O)C(C)(C)[C@@H]5CC[C@]43C)[C@@H]2[C@@H]1C
Activity [21]: 15.7 U/ml

C[C@@H]1CC[C@]2(C(=O)O)CC[C@]3(C)C(=CC[C@@H]4[C@@]5(C)C[C@@H](O)[C@@H](O)C(C)(C)[C@@H]5CC[C@]43C)[C@@H]2[C@]1(C)O [EUSCAPHIC ACID]
Activity [22]: 48.8%
